Converted amounts (≈) assume the structure as drawn.
Legend:
Format in all cases: functional
Nakaseomyces glabratus [1] = assay: Antifungal activity against Candida glabrata isolated from HSCT recipients with acute or chronic GVHD receiving posaconazole by broth microdilution method
Candida albicans [2] = assay: Antifungal activity against Candida albicans isolated from HSCT recipients with acute or chronic GVHD prior to initiation of posaconazole therapy by broth microdilution method
Nakaseomyces glabratus [3] = assay: Antifungal activity against Candida glabrata isolated from HSCT recipients with acute or chronic GVHD receiving fluconazole by broth microdilution method
Pichia kudriavzevii [4] = assay: Antifungal activity against 6 days cultured Candida krusei isolated from neutropenic subject with AML or MDS stool receiving antifungal therapy for 19 days after 6 days of prophylaxis by broth microdilution method
Nakaseomyces glabratus [5] = assay: Antifungal activity against Candida glabrata isolated from neutropenic subjects with AML or MDS receiving posaconazole by broth microdilution method
Candida albicans [6] = assay: Antifungal activity against Candida albicans isolated from neutropenic subjects with AML or MDS prior to initiation of posaconazole therapy by broth microdilution method
Candida albicans [7] = assay: Antifungal activity against Candida albicans isolated from HSCT recipient 928 with acute or chronic GVHD mouth after 112 days prophylaxis by broth microdilution method
Nakaseomyces glabratus [8] = assay: Antifungal activity against Candida glabrata isolated from neutropenic subjects with AML or MDS receiving posaconazole assessed as maximum MIC by broth microdilution method
Nakaseomyces glabratus [9] = assay: Antifungal activity against Candida glabrata isolated from neutropenic subjects with AML or MDS prior to initiation of posaconazole therapy assessed as maximum MIC by broth microdilution method
Candida tropicalis [10] = assay: Antifungal activity against -3 days cultured Candida tropicalis isolated from neutropenic subject with AML or MDS stool receiving antifungal therapy for 45 days after 24 days of prophylaxis by broth microdilution method
Candida albicans [11] = assay: Antifungal activity against Candida albicans isolated from HSCT recipient 042 with acute or chronic GVHD mouth receiving antifungal drug after 112 days prophylaxis by broth microdilution method
Nakaseomyces glabratus [12] = assay: Antifungal activity against 29 days cultured Candida glabrata isolated from neutropenic subject with AML or MDS pharynx after 48 days of prophylaxis by broth microdilution method
Candida albicans [13] = assay: Antifungal activity against Candida albicans isolated from HSCT recipients with acute or chronic GVHD receiving posaconazole assessed as maximum MIC by broth microdilution method
Nakaseomyces glabratus [14] = assay: Antifungal activity against -2 days cultured Candida glabrata isolated from HSCT recipient with acute or chronic GVHD mouth receiving antifungal therapy for 168 days after 113 days of prophylaxis by broth microdilution method
Candida albicans [15] = assay: Antifungal activity against Candida albicans isolated from neutropenic subjects with AML or MDS receiving fluconazole assessed as maximum MIC by broth microdilution method
Nakaseomyces glabratus [16] = assay: Antifungal activity against Candida glabrata isolated from HSCT recipient 975 with acute or chronic GVHD mouth receiving antifungal drug after 112 days prophylaxis by broth microdilution method
Nakaseomyces glabratus [17] = assay: Antifungal activity against 25 days cultured Candida glabrata isolated from invasive fungal infected subject blood receiving antifungal therapy for 25 days after 3 days of prophylaxis by broth microdilution method
Pichia kudriavzevii [18] = assay: Antifungal activity against 16 days cultured Candida krusei isolated from neutropenic subject with AML or MDS stool receiving antifungal therapy for 19 days after 6 days of prophylaxis by broth microdilution method
Nakaseomyces glabratus [19] = assay: Antifungal activity against Candida glabrata isolated from HSCT recipient 002 with acute or chronic GVHD mouth after 116 days prophylaxis by broth microdilution method
Nakaseomyces glabratus [20] = assay: Antifungal activity against Candida glabrata isolated from neutropenic subject 1331 with AML or MDS pharynx after 21 days prophylaxis by broth microdilution method; settings: 504 h
Pichia kudriavzevii [21] = assay: Antifungal activity against Candida krusei isolated from HSCT recipients with acute or chronic GVHD prior to initiation of fluconazole therapy assessed as maximum MIC by broth microdilution method
Nakaseomyces glabratus [22] = assay: Antifungal activity against 43 days cultured Candida glabrata isolated from HSCT recipient with acute or chronic GVHD mouth receiving antifungal therapy for 172 days after 114 days of prophylaxis by broth microdilution method
Pichia kudriavzevii [23] = assay: Antifungal activity against Candida krusei isolated from neutropenic subjects with AML or MDS prior to initiation of posaconazole therapy assessed as maximum MIC by broth microdilution method
Nakaseomyces glabratus [24] = assay: Antifungal activity against -2 days cultured Candida glabrata isolated from HSCT recipient with acute or chronic GVHD mouth receiving antifungal therapy for 172 days after 114 days of prophylaxis by broth microdilution method
Nakaseomyces glabratus [25] = assay: Antifungal activity against 1 day cultured Candida glabrata isolated from HSCT recipient with acute or chronic GVHD mouth after 17 days of prophylaxis by broth microdilution method
Pichia kudriavzevii [26] = assay: Antifungal activity against 1 day cultured Candida krusei isolated from neutropenic subject with AML or MDS pharynx receiving antifungal therapy for 19 days after 6 days of prophylaxis by broth microdilution method
Candida albicans [27] = assay: Antifungal activity against Candida albicans isolated from HSCT recipient 301 with acute or chronic GVHD mouth after 114 days prophylaxis by broth microdilution method
Candida albicans [28] = assay: Antifungal activity against Candida albicans isolated from HSCT recipients with acute or chronic GVHD prior to initiation of fluconazole therapy by broth microdilution method
Nakaseomyces glabratus [29] = assay: Antifungal activity against 85 days cultured Candida glabrata isolated from HSCT recipient with acute or chronic GVHD mouth receiving antifungal therapy for 143 days after 116 days of prophylaxis by broth microdilution method
Nakaseomyces glabratus [30] = assay: Antifungal activity against 60 days cultured Candida glabrata isolated from HSCT recipient with acute or chronic GVHD mouth receiving antifungal therapy for 75 days after 33 days of prophylaxis by broth microdilution method
Nakaseomyces glabratus [31] = assay: Antifungal activity against 42 days cultured Candida glabrata isolated from neutropenic subject with AML or MDS stool after 48 days of prophylaxis by broth microdilution method
Pichia kudriavzevii [32] = assay: Antifungal activity against 14 days cultured Candida krusei isolated from neutropenic subject with AML or MDS stool after 12 days of prophylaxis by broth microdilution method
Candida tropicalis [33] = assay: Antifungal activity against 9 days cultured Candida tropicalis isolated from neutropenic subject with AML or MDS stool receiving antifungal therapy for 45 days after 24 days of prophylaxis by broth microdilution method
Nakaseomyces glabratus [34] = assay: Antifungal activity against 56 days cultured Candida glabrata isolated from HSCT recipient with acute or chronic GVHD mouth receiving antifungal therapy for 172 days after 114 days of prophylaxis by broth microdilution method
Candida albicans [35] = assay: Antifungal activity against Candida albicans isolated from HSCT recipients with acute or chronic GVHD prior to initiation of posaconazole therapy assessed as maximum MIC by broth microdilution method
Candida albicans [36] = assay: Antifungal activity against Candida albicans isolated from HSCT recipient 042 with acute or chronic GVHD mouth after 112 days prophylaxis by broth microdilution method
Nakaseomyces glabratus [37] = assay: Antifungal activity against Candida glabrata isolated from neutropenic subject 1497 with AML or MDS pharynx after 61 days prophylaxis by broth microdilution method
Nakaseomyces glabratus [38] = assay: Antifungal activity against 1 day cultured Candida glabrata isolated from neutropenic subject with AML or MDS stool receiving antifungal therapy for 25 days after 3 days of prophylaxis by broth microdilution method
Nakaseomyces glabratus [39] = assay: Antifungal activity against Candida glabrata isolated from neutropenic subject 1497 with AML or MDS pharynx receiving antifungal drug after 61 days prophylaxis by broth microdilution method

CC[C@@H]([C@H](C)O)n1ncn(-c2ccc(N3CCN(c4ccc(OC[C@@H]5CO[C@@](Cn6cncn6)(c6ccc(F)cc6F)C5)cc4)CC3)cc2)c1=O [POSACONAZOLE]
MIC50 (Nakaseomyces glabratus [1]): 2 µg/mL (≈ 2.85 µM) | MIC90 (Nakaseomyces glabratus [1]): 8 µg/mL (≈ 11.4 µM) | MIC50 (Candida albicans [2]): 0.016 µg/mL (≈ 0.0228 µM) | MIC90 (Candida albicans [2]): 0.06 µg/mL (≈ 0.0856 µM) | MIC50 (Nakaseomyces glabratus [3]): 2 µg/mL (≈ 2.85 µM) | MIC90 (Nakaseomyces glabratus [3]): 8 µg/mL (≈ 11.4 µM) | MIC (Pichia kudriavzevii [4]): 0.125 µg/mL (≈ 0.178 µM) | MIC50 (Nakaseomyces glabratus [5]): 0.5 µg/mL (≈ 0.713 µM) | MIC90 (Nakaseomyces glabratus [5]): 4 µg/mL (≈ 5.71 µM) | MIC50 (Candida albicans [6]): 0.015 µg/mL (≈ 0.0214 µM) | MIC90 (Candida albicans [6]): 0.015 µg/mL (≈ 0.0214 µM) | MIC (Candida albicans [7]): < 0.015 µg/mL | MIC (Nakaseomyces glabratus [8]): 8 µg/mL | MIC (Nakaseomyces glabratus [9]): 4 µg/mL | MIC (Candida tropicalis [10]): < 0.015 µg/mL | MIC (Candida albicans [11]): < 0.015 µg/mL | MIC (Nakaseomyces glabratus [12]): 8 µg/mL (≈ 11.4 µM) | MIC (Candida albicans [13]): 0.25 µg/mL | MIC (Nakaseomyces glabratus [14]): 1 µg/mL (≈ 1.43 µM) | MIC (Candida albicans [15]): 8 µg/mL | MIC (Nakaseomyces glabratus [16]): 4 µg/mL (≈ 5.71 µM) | MIC (Nakaseomyces glabratus [17]): 0.5 µg/mL (≈ 0.713 µM) | MIC (Pichia kudriavzevii [18]): 0.25 µg/mL (≈ 0.357 µM) | MIC (Nakaseomyces glabratus [19]): 0.5 µg/mL (≈ 0.713 µM) | MIC (Nakaseomyces glabratus [20]): 2 µg/mL (≈ 2.85 µM) | MIC (Pichia kudriavzevii [21]): 0.5 µg/mL | MIC (Nakaseomyces glabratus [22]): 1 µg/mL (≈ 1.43 µM) | MIC (Pichia kudriavzevii [23]): 0.25 µg/mL | MIC (Nakaseomyces glabratus [24]): 0.5 µg/mL (≈ 0.713 µM) | MIC (Nakaseomyces glabratus [25]): > 8 µg/mL | MIC (Pichia kudriavzevii [26]): 0.06 µg/mL (≈ 0.0856 µM) | MIC (Candida albicans [27]): < 0.015 µg/mL | MIC50 (Candida albicans [28]): 0.016 µg/mL (≈ 0.0228 µM) | MIC90 (Candida albicans [28]): 0.03 µg/mL (≈ 0.0428 µM) | MIC (Nakaseomyces glabratus [29]): 4 µg/mL (≈ 5.71 µM) | MIC (Nakaseomyces glabratus [30]): 4 µg/mL (≈ 5.71 µM) | MIC (Nakaseomyces glabratus [31]): 1 µg/mL (≈ 1.43 µM) | MIC (Pichia kudriavzevii [32]): 0.125 µg/mL (≈ 0.178 µM) | MIC (Candida tropicalis [33]): < 0.015 µg/mL | MIC (Nakaseomyces glabratus [34]): 0.25 µg/mL (≈ 0.357 µM) | MIC (Candida albicans [35]): 16 µg/mL | MIC (Candida albicans [36]): < 0.015 µg/mL | MIC (Nakaseomyces glabratus [37]): 0.03 µg/mL (≈ 0.0428 µM) | MIC (Nakaseomyces glabratus [38]): 4 µg/mL (≈ 5.71 µM) | MIC (Nakaseomyces glabratus [39]): 4 µg/mL (≈ 5.71 µM)
